Assay results reported in the supplement of paper PMC13380429.

Tests used:
Conditions in all cases: 72 h
[1] = tested on: Caco-2; assay: cell viability relative to DMSO; higher = less toxic
[2] = tested on: Calu-3; assay: as above
[3] = tested on: HepG2; assay: as above
[4] = tested on: U2OS; assay: as above
[5] = tested on: Vero E6; assay: as above
[6] = tested on: Caco-2; assay: relative viability EC50 (midpoint between 100% and the lowest measured viability); higher = less toxic
[7] = tested on: Calu-3; assay: as above
[8] = tested on: HepG2; assay: as above
[9] = tested on: U2OS; assay: as above
[10] = tested on: Vero E6; assay: as above
[11] = tested on: Caco-2; assay: drug sensitivity score (DSS) for viability; higher = more toxic; extreme values may be limits of the assay
[12] = tested on: Calu-3; assay: as above
[13] = tested on: HepG2; assay: as above
[14] = tested on: U2OS; assay: as above
[15] = tested on: Vero E6; assay: as above

SMILES	cell viability ([1]; 1 nM) [%]	cell viability ([1]; 10 nM) [%]	cell viability ([1]; 100 nM) [%]	cell viability ([1]; 1000 nM) [%]	cell viability ([1]; 10000 nM) [%]	cell viability ([2]; 1 nM) [%]	cell viability ([2]; 10 nM) [%]	cell viability ([2]; 100 nM) [%]	cell viability ([2]; 1000 nM) [%]	cell viability ([2]; 10000 nM) [%]	cell viability ([3]; 1 nM) [%]	cell viability ([3]; 10 nM) [%]	cell viability ([3]; 100 nM) [%]	cell viability ([3]; 1000 nM) [%]	cell viability ([3]; 10000 nM) [%]	cell viability ([4]; 1 nM) [%]	cell viability ([4]; 10 nM) [%]	cell viability ([4]; 100 nM) [%]	cell viability ([4]; 1000 nM) [%]	cell viability ([4]; 10000 nM) [%]	cell viability ([5]; 1 nM) [%]	cell viability ([5]; 10 nM) [%]	cell viability ([5]; 100 nM) [%]	cell viability ([5]; 1000 nM) [%]	cell viability ([5]; 10000 nM) [%]	relative viability EC50 [6] [µM]	relative viability EC50 [7] [µM]	relative viability EC50 [8] [µM]	relative viability EC50 [9] [µM]	relative viability EC50 [10] [µM]	drug sensitivity score [11]	drug sensitivity score [12]	drug sensitivity score [13]	drug sensitivity score [14]	drug sensitivity score [15]
Cc1cc(S(=O)(=O)O)c2c(C)ccc(C(C)C)cc1-2 [sodium-gualenate]	90.8	95.5	92.2	92.8	89.3	109	91.8	112	103	100	97.3	87.1	103	94.6	108	92.8	95.2	98	101	104	98	106	101	93.2	92.8	> 10	> 10	> 10	> 10	> 10	0	0	0	0	0
N=C(N)NCCN1CCCCCCC1 [guanethidine]	92.3	96.6	91	91.8	101	104	102	99.6	95	97.3	99.3	102	96.4	106	93.6	102	96.6	99.7	98.8	103	105	97.2	95.2	109	101	> 10	> 10	> 10	> 10	> 10	0	0	0	0	0
C[C@H]1CO[C@@H]2Cn3cc(C(=O)NCc4ccc(F)cc4F)c(=O)c(O)c3C(=O)N12	107	90.1	98	98.5	81.6	109	94	104	95.2	92.2	104	112	97.1	112	56.9	95.6	92.4	99.4	92.2	88.5	88.9	99.7	94.3	97.5	89.6	> 10	> 10	–	> 10	> 10	0.6	0	1.6	0	0
c1cn2cc(-c3ccc4cn[nH]c4c3)nc(Nc3ccc(N4CCOCC4)cc3)c2n1 [GS-9973]	108	108	98.3	99.7	91.4	95.2	103	90	94.3	92.7	105	103	100	93.8	92.5	94.1	101	98.2	98	92.2	–	–	–	–	–	> 10	> 10	> 10	> 10	–	0	0	0	0	–
C=C[C@]1(C)C[C@@H](OC(=O)CSC(C)(C)CNC(=O)[C@H](N)C(C)C)[C@]2(C)[C@H](C)CC[C@]3(CCC(=O)[C@H]32)[C@@H](C)[C@@H]1O [valnemulin]	99.4	93.3	91.8	94.5	80.9	94.3	98.6	102	101	98.9	98.6	104	93.7	88.1	63	97.4	99.4	97.7	96.3	79.5	97.1	98.7	103	95.1	88.3	> 10	> 10	–	> 10	> 10	0.7	0	3	1.1	0.2
Cc1c(O)c(=O)n(-c2ccccc2)n1C [4-hydroxy-phenazone]	98.7	98.7	90.2	92.3	90.6	107	105	101	96.8	102	102	103	110	96.6	115	–	–	–	–	–	98	98.3	103	103	92.9	> 10	> 10	> 10	–	> 10	0	0	0	–	0
COc1cc([S+](C)[O-])ccc1-c1nc2cccnc2[nH]1 (configuration not stated) [sulmazole]	115	98.5	98.8	99.5	112	108	90.3	90.7	93.8	104	106	103	95.5	102	100	–	–	–	–	–	98	102	98.5	97.8	101	> 10	> 10	> 10	–	> 10	0	0	0	–	0
